Data reported in ChEMBL document CHEMBL1201862, “PubChem BioAssay data set” (2004).
Active and inactive are the calls of the source. Cut-off read from the data, not from the text of the source, for most assays here: actives have a measured IC50 and inactives only a lower limit.

How the values were obtained:
Assay type in all cases: functional
[1] = biological target: T1, Apoptotic protease-activating factor 1 (Homo sapiens, UniProt O14727)
T1 sequence (O14727 whole entry): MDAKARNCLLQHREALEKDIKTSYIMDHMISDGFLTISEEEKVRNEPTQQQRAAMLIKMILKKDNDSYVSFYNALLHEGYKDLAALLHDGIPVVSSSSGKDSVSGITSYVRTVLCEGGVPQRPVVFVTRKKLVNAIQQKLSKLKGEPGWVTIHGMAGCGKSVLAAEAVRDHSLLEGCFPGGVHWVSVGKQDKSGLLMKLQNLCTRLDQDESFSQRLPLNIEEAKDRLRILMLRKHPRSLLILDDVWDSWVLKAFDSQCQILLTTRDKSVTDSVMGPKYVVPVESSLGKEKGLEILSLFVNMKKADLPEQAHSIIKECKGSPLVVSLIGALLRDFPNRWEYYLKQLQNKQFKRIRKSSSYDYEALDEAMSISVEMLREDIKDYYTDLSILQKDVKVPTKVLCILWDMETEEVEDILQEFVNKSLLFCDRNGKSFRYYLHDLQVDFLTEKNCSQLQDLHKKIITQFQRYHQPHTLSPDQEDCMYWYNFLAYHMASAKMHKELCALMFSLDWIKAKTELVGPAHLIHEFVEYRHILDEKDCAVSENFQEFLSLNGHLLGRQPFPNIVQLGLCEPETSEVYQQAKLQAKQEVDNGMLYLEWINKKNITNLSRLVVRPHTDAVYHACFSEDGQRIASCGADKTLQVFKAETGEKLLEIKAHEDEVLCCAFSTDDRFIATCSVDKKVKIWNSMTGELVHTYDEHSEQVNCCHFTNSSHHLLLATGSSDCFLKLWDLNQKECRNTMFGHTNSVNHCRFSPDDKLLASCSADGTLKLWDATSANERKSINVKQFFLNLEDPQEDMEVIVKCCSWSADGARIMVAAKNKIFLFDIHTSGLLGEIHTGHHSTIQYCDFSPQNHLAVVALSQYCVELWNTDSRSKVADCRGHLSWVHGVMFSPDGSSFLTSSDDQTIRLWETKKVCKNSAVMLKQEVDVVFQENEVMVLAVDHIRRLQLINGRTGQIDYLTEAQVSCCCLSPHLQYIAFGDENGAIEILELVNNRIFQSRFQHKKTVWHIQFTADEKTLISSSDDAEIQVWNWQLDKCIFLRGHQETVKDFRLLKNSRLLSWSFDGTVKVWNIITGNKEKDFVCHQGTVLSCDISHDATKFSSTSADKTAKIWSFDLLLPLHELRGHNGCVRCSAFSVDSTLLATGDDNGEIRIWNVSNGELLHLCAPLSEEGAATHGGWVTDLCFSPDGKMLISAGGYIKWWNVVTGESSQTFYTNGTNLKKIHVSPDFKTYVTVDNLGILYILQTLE

[2] = biological target: T2, Sentrin-specific protease 6 (Homo sapiens, UniProt Q9GZR1);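 note: Luminescence-based dose-response confirmatory assay of SENP6 inhibition, following up an ultra-high-throughput screen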
T2 sequence (Q9GZR1 whole entry): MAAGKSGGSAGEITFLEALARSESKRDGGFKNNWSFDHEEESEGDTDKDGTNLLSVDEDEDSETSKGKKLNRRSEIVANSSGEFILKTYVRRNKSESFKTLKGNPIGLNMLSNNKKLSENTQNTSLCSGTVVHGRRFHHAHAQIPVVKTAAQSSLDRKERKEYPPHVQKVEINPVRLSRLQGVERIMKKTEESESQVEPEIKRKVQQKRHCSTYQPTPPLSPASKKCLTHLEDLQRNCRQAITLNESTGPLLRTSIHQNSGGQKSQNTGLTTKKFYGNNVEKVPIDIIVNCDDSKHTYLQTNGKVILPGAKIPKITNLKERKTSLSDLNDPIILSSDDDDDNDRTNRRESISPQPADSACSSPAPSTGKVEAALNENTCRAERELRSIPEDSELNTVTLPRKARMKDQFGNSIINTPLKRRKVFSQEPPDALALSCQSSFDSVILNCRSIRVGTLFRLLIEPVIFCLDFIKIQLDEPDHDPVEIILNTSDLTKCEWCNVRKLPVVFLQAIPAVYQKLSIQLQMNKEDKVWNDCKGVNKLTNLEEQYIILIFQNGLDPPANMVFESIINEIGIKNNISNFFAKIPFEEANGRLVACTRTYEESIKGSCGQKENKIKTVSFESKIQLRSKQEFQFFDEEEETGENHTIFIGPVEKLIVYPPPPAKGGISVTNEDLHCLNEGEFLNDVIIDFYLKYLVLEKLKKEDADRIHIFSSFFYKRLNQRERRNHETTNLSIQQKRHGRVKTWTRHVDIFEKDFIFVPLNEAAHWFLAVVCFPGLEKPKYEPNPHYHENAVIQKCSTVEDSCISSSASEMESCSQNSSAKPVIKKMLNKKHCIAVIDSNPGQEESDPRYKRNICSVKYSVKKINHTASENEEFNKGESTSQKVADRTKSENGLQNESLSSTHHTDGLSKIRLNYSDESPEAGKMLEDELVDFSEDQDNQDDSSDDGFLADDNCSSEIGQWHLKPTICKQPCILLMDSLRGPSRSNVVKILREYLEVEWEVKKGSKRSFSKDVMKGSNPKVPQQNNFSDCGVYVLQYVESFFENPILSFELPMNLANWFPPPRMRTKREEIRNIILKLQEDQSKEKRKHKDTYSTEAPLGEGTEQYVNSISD

INS1 = test: INS-1E survival protection against cytokine death – cell-based, luminescence, retest, dose response (AID 449756); conditions: Rattus norvegicus;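 note: cell death triggered by IL-1 beta plus TNF-alpha plus IFN-gamma mixture; protective hits raise ATP signal compared with cytokine alone wells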
Caspase-3 = biological target: T3, Caspase-3 (Homo sapiens, UniProt P42574);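 note: Dose-response selectivity test against caspase-3 for candidate inhibitors of sentrin-specific proteases (SENPs)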
T3 sequence (P42574 whole entry): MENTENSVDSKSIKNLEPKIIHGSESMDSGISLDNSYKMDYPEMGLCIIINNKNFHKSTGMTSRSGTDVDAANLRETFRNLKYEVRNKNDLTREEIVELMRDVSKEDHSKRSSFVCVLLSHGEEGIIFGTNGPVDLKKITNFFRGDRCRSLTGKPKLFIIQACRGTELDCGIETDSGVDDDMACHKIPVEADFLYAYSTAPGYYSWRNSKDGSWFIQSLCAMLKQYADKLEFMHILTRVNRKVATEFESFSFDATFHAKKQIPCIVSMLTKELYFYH

| Structure (SMILES) | IC50 [1] | IC50 [2] | AC50 (INS1) | IC50 (Caspase-3) |
| --- | --- | --- | --- | --- |
| COc1ccc(S(=O)(=O)Nc2cc(SCC(=O)O)c(O)c3ccccc23)cc1 | 31.8 µM (active) | 3.81 µM (active) | 4.09 µM (active) | 11.2 µM (active) |
| O=C(/C=C/c1ccco1)Nc1ccc(Oc2ccccc2)cc1 |  | 5.23 µM (active) |  | 20.5 µM (active) |
| CC1CC(=O)c2c(cc3c(-c4c(O)cc(O)c5c(O)c6c(cc45)OC(C)CC6=O)c(O)cc(O)c3c2O)O1 (stereo not drawn) [CEPHALOCHROMIN] |  |  | 3.39 µM (active) |  |
| COC(=O)C(O)(c1c(C)[nH]n(-c2ccccc2)c1=O)C(F)(F)F (stereo not drawn) | 14.6 µM (active) |  |  |  |
